The test system of data set [1] is H292 clone 15 cells. As to conditions: 48 hours compound, Alamar Blue 2 hours; Average of 3 experiments.
For data set [2], the system named is MUC5A/C secretion in hCLCA1 expressing H292 cells. Kind of data set: MUC5A/C secretion in hCLCA1 expressing H292 cells (ELLA). It is filed as cell-based, human. Set-up: key to ELLA: + = inhibition; − = no inhibition.
The test system of data set [3] is Muc5b. Nature of the data set: Inhibition of Muc5b expression. It is filed as cell-based. On the set-up: key: + = inhibition; − = no inhibition. Particulars: Table 2. Here is the method: The effects of talniflumate derivatives on mucin production were also assayed for changes in ELLA and IC50 (Table 2) as described in the methods above.
The subject of data set [4] is MUC5AC production by H292 clone 15 cells overexpressing hCLCA1. Nature of the data set: ELLA of MUC5AC in conditioned media of H292 clone 15 cells. In kind it is cell-based, human. Particulars: 48 hours, Average of 3 experiments.
Protocol: Conditioned media were collected and MUC5AC (the major secretory mucin in lungs) content was determined by ELLA measurement as described below. 96 well microtiter plates were coated with a mouse monoclonal antibody against human MUC5AC (1-13M1, NeoMarkers), then incubated with test conditioned media. Bound MUC5AC was detected by horseradish peroxidase-conjugated soybean lectin which has a high affinity towards highly-glycosylated proteins such as MUC5AC. Conversion of peroxidase substrate TMB (Tetramethylbenzidine Base) was quantified by reading at 450 nm. O.D. (optical density) readings were plotted against concentrations of compounds.

This note sets out measurements from US7345051B2, “Mucin synthesis inhibitors” (Genaera Corporation, priority 2000, dated 2008).

Broadly, the IC50 is the concentration that inhibits the measured activity by half. Consider `O=C1OC(CC(=O)c2cccnc2Nc2cccc(C(F)(F)F)c2)c2ccccc21` (centres unmarked) [MSI 2216], for which the “Est. LD50 (μM)(alamar Blue)*” value in data set [1] turned out to be 32 µM. For the same molecule, the concentration for half-maximal inhibition (IC50) was found to be 5 µM in data set [2] (Table 2, ELLA) and 3 µM in data set [4]. The ELLA result in data set [2] (Table 2, mucin production) is recorded as “+”. Moreover, the “Inhibition of Muc5b Expression” value in data set [3] was “+”.
